# Measurements reported in patent publication US9883691B2, “Food and beverage products containing 1,3-propanediol and methods of modifying flavor release using 1,3-propanediol” (Kraft Foods Group Brands LLC, priority 2012, dated 2018).
# Columns and labels:
# Type in all cases: physicochemical
# [1] = PTR-MS headspace release at various flavor compound to 1,3-propanediol or PG ratios (Example 2); conditions: for release suppressed in the presence of 1,3-propanediol: 10% cut-off for significant difference, relative to PG; for Percent Suppression by 1,3-propanediol: (IZ−IPG)/IPG×100
# Description: The compounds listed below in Table 3 were added together to provide a liquid flavoring to analyze the role, if any, of the amount of 1,3-propanediol on flavor release. […] The amount of each flavor compound in the beverage was held constant at 8 ppm except furfuryl mercaptan was included at 1.6 ppm while the amount of propylene glycol or 1,3-propanediol varied.
# The percent suppression was calculated using the following formula: (IZ−IPG)/IPG×100, where I is peak height, “Z” is 1,3-propanediol and “PG” is propylene glycol.
# [2] = PTR-MS headspace release with various non-aqueous liquids (diols) at 0.05:100 (Example 3); conditions: ratio 0.05:100; for PTR-MS headspace release in 1,3-butanediol: non-aqueous liquid 1,3-butanediol; for PTR-MS headspace release in 1,3-butanediol / PTR-MS headspace release in 1,3-propanediol / PTR-MS headspace release in 1,4-butanediol / PTR-MS headspace release in 1,7-heptanediol / PTR-MS headspace release in Propylene glycol: diluted in water; for PTR-MS headspace release in 1,3-propanediol: non-aqueous liquid 1,3-propanediol; for PTR-MS headspace release in 1,4-butanediol: non-aqueous liquid 1,4-butanediol; for PTR-MS headspace release in 1,7-heptanediol: non-aqueous liquid 1,7-heptanediol; for PTR-MS headspace release in Propylene glycol: non-aqueous liquid propylene glycol
# Description: […]. The flavoring was then diluted in water for analysis. The final concentration of each compound was held constant at 8 ppm except furfuryl mercaptan was included at 1.6 ppm to maintain a constant flavor level in the resulting beverage while the non-aqueous liquid varied but the ratio of each compound to non-aqueous liquid was held constant at 0.05:100. A variety of non-aqueous liquids were evaluated, including 1,4-butandiol; 1,7-heptandiol; 1,3-butandiol, propylene glycol, and 1,3-propanediol.
# Samples were analyzed by PTR-MS as described in Example 1.
# Percent suppression was calculated by the following formula: (I1-3-diol−Ialternate diol)/Ialternate diol×100.
# [3] = PTR-MS headspace release in neat solvent, solvent/solvent experiment (Example 5); set-up: key to Release Differences: “Z” indicates that 1,3-propanediol had higher equilibrium maximum (meaning more of the flavor was released in 1,3-propanediol); “P” indicates that propylene glycol had higher equilibrium maximum; “-” indicates no statistical difference (95% significance) between the two samples; conditions: 1.5 hrs equilibration; for Release Differences: 1,3-propanediol versus propylene glycol as sole solvent, 95% significance
# Description: […]. Then the head space was analyzed as described above.
# 0.86 grams of the concentrate was added to 100 grams of either propylene glycol or 1,3-propanediol to provide a 1,3-propanediol diluted concentrate or propylene glycol diluted concentrate. The diluted concentrates were then further diluted as outlined in Table 10 below.
# A 15 gram sample was weighed into a 4 oz vessel and analyzed at 1.5 hrs. of equilibration time as described in the method of Example 4.
# [4] = PTR-MS headspace release from stored beverages, water/solvent experiment (Example 4); conditions: beverage stored refrigerated; 1.5, 24, 48 and 72 hours; Tukey-Kramer
# Description: 0.86 grams of the flavor concentrate was then added to 100 grams of either propylene glycol or 1,3-propanediol to provide diluted concentrates. […].
# The beverages were then stored in sealed containers in a refrigerator. The container was opened five times over the course of the experiment and therefore represented a beverage in a sealed container being opened for multiple uses. 15 gram samples were weighed into a 4 ounce cup and analyzed at 1.5 hours, 24 hours, 48 hours, and 72 hours after storage.
# The samples were analyzed in triplicate by PTR-MS as described below to determine impact of 1,3-propanediol or propylene glycol on release of the flavors from the beverage. The PTR-MS was performed as follows. A sampling apparatus was needed in conjunction with the PTR-MS inlet to prevent variations caused by headspace kinetics. The sampling apparatus used includes a 4 ounce sample vessel equipped with a 2-hole lid which may be sealed by an adhesive film to allow equilibration. […]. The holes were equal sized (˜2 mm diameter) and match the outer diameter of the PTR-MS inlet line. The flow of the dilution gas into the vessel was regulated by the vacuum and proportional valve of the PTR-MS inlet system. […] The 2 holes in the lid were equidistant from the edge of the vessel (˜20 mm) and ˜30 mm from each other. The PTR-MS inlet was braced by clamps in a fixed position vertically above the laboratory bench (˜55 mm) and a silicone rubber depth gauge was affixed to the PTR-MS inlet tubing and set at 18 mm. The PTR-MS inlet was consistently oriented in a vertical position […] below the inside lid of the vessel and 19 mm above the sample in the vessel. The sample vessel was then held in place during sampling according to the depth gauge on the inlet line and the vessel was subsequently supported on the bench by a 10 mm plastic spacer.
# 15 grams of the sample to be tested (e.g., food or beverage product containing 1,3-propanediol) are added to the vessel and the vessel is sealed and allowed to equilibrate at room temperature (˜22° C.) for 90 minutes. At the time of sampling, the seal was removed from both the sampling hole and the dilution gas hole in the lid and the vessel was immediately affixed to the PTR-MS inlet via the sampling hole. The real-time released flavor was measured from the headspace of the sample vessel for two minutes (according to the conditions listed in Table 1 above).
# The data was analyzed using PTR-MS Viewer, Version 3.0.0.101 (Ionicon Analytik G.m.b.H). The point of maximum intensity for each compound of interest was determined and recorded according to the PTR-MS Viewer software. The maximum intensity in counts over the timescale for each compound of interest was used for data analysis as it reflected the static equilibrium headspace concentration in the system at the moment of seal removal. Due to the necessity of a dilution gas, the volatile concentration decreased over time as the compounds of interest re-equilibrated to a state of dynamic equilibrium in the headspace.
# The statistical differences were determined by Tukey-Kramer Honest […]. […].
# [5] = ratio 0.005:100, negative = suppressed vs PG
Structure (SMILES),"release suppressed in the presence of 1,3-propanediol [1]","effect of 1,3-propanediol on release ([1]; flavor/1,3-propanediol ratio of 0.005:100, 0.05:100, and 5:100)","effect of 1,3-propanediol on release ([1]; ratio 0.005:100)","Percent Suppression by 1,3-propanediol [1, 5] [%]","Percent Suppression by 1,3-propanediol ([1]; ratio 0.05:100) [%]","Percent Suppression by 1,3-propanediol ([1]; ratio 5:100) [%]","Percent Suppression by 1,3-propanediol ([1]; ratio 15:100) [%]","PTR-MS headspace release in 1,3-butanediol [2]","PTR-MS headspace release in 1,3-propanediol [2]","PTR-MS headspace release in 1,4-butanediol [2]","PTR-MS headspace release in 1,7-heptanediol [2]",PTR-MS headspace release in Propylene glycol [2],"Percent suppression by 1,3-butanediol relative to 1,4-butanediol [2] [%]",Release Differences [3],"release in 1,3-propanediol versus propylene glycol, solvent/solvent [3]","effect of 1,3-propanediol on flavor release relative to propylene glycol, water/solvent [4]","effect of 1,3-propanediol on release ([1]; flavor/1,3-propanediol ratio of 0.05:100 and 5:100)"
CC=O [Acetaldehyde],suppressed,significant suppression effect,still suppressed,−22.1,−37.3,−57.4,64.5,157.0,104.00,196.5,206.5,165.85,−25.2,Z,"released faster (as evidenced by higher headspace concentration) in 1,3-propanediol",released faster in propylene glycol,–
O=Cc1ccccc1 [Benzaldehyde],suppressed,–,–,−0.5,−90.3,−40.6,−16.2,250.0,13.20,354.0,357.5,136.25,−41.6,P,–,significantly suppressed release,significant suppression effect
CCCC(=O)OCC [Ethyl butyrate],–,–,–,3.2,14.9,−21.8,−3.3,141.5,46.20,239.3,223.5,40.20,−69.10,Z,–,little effect,–
